Test system: Streptococcus mutans
Assay: Killing efficacy against Streptococcus mutans in vitro (cfu count after treatment)
Format: cell-based
Details: inoculum 2.71×10^4 cfu/ml, FIG. 1
Procedure: Because the primary bacterium responsible for dental caries (cavities) is Streptococcus mutans, the killing efficacy of agmatine and EGCG, alone and in combination, was determined against Streptococcus mutans. Killing efficacy was measured in vitro using Streptococcus mutans cells grown in brain heart infusion (BHI) plates for at least 24-48 hours at 37° C. Each experiment was initiated by collecting an individual colony from the BHI plate and growning the colony overnight at 37° C. and 5% CO2 in BHI liquid media. Streptococcus mutans cells were then passaged 2 times in chemically defined media for Streptococcus mutans and grown overnight at 37° C. and 5% CO2. The absorbance at A600 of the culture was measured to determine the bacterial cell concentration of the inoculum. Once the desired bacterial concentration was reached, Streptococcus mutans inoculum was plated on cell culture plates previously prepared with a range of concentrations of EGCG alone, agmatine alone, or EGCG and agmatine in combination. The plates streaked with inoculum were incubated for at least 24 hours at 37° C. and 5% CO2. After incubation, the cells were transferred to sterile tubes, plated on BHI plate using an Autoplate 4000, and incubated for at least 36 hours at 37° C. Colonies were counted and colony forming units (cfu) were calculated as recommended by Autoplate 4000 guide. […]

SMILES | bacterial concentration of Streptococcus mutans following treatment (50 μg/ml EGCG alone) | bacterial concentration of Streptococcus mutans following treatment (7.5 mg/ml agmatine alone)
O=C(O[C@@H]1Cc2c(O)cc(O)cc2O[C@@H]1c1cc(O)c(O)c(O)c1)c1cc(O)c(O)c(O)c1 [EGCG, epigallocatechin gallate] | 6.00×10^1 cfu/ml | –
NCCCCN=C(N)N [agmatine, (4-aminobutyl)guanidine] | – | 6.50×10^1 cfu/ml

From patent US11116713B2, “Oral care compositions and methods” (priority 2018, dated 2021)
